Literature values, collected in patent US6891077B2, “Fibrinogen bandages and arterial bleeding models and methods of making and using thereof” (priority 2001, dated 2005).

Tested on: coagulation and clot formation
Settings: incorporated in or on fibrinogen dressings or bandages

NCCCCCC(=O)O [ε-amino caproic acid]
Effect on coagulation and clot formation as compared to fibrinogen bandages alone: decreased coagulation and clot formation
